From patent US20090186838A1, “Amphotericin Derivatives” (Eidgenössische Technische Hochschule Zürich, priority 2006, published 2009) come the findings set out here.

≈ marks a conversion by molar mass, not a printed value.

Experiment [1] has as its system DSY-562 C. glabrata CI. The experiment is described as follows: MIC determination in Candida strain DSY-562. The format is cell-based. The note with it: Nakaseomyces glabratus. The method, then: (§1) In Vitro Antifungal Activity. MIC values for various strains were determined in accordance with the standard protocol from the National Committee of Clinical Laboratory Standards but using YEPD liquid medium instead of RPMI-1640 medium (National Committee of Clinical Laboratory Standards (Reference Method for Broth Dilution Antifungal Susceptibility Testing of Yeast, M27-A2, Approved Standard-Second Edition, Volume 22, Number 15, 1995). AmB was used as a reference. The strains were cultivated overnight in 5 mL YEPD liquid medium at 30 to 37° C. (30° C. for the strain BY4741; 37° C. for the strain DSY1764) with constant shaking. The saturated cultures were diluted to an ODB600 of 0.1 (3×10P^7 cells/mL). Using 24 wells plate, each well was prepared by adding 1% (12 μL) of DMSO solution of the tested polyene macrolide with 1% (12 μL) yeast cells solution and completed with YEPD (1.176 mL). The plates were sealed with Parafilm and then incubated for 18 to 36 hours at 30 to 37° C. (18 hours at 30° C. for the strain BY4741; 36 hours at 37° C. for the strain DSY1764). The optical density was read at 600 nm using 1.5 mL cuvettes. The MIC value was defined as the drug concentration needed to inhibit growth, less than 5% compared to a drug-free culture.
(§2) MIC values of the polyene macrolides 3, 9 and 10 (Diamine-AmB and its ester and diamide derivative, respectively) in various Candida strains including an AmB-resistant strain C. albicans (DSY1764, with the genotype erg3AΔ::hisG/erg3BΔ::hisG erg11Δ::hisG/erg11Δ::hisG-URA3-hisG) were determined.

The subject of experiment [2] is DSY-565 C. glabrata CI. Description: MIC determination in Candida strain DSY-565. The format is cell-based. The note with it: Nakaseomyces glabratus. The method, then: as §1, §2
Experiment [3] deals with DSY-1751 C. albican mutant erg3. Description: MIC determination in Candida strain DSY-1751. The format is cell-based, Candida albicans. The note with it: Candida albicans. The method, then:
as §1, §2

Experiment [4] concerns CAF2-1 C. albican wt. The experiment is described as follows: MIC determination in Candida strain CAF2-1. The format is cell-based, Candida albicans. The note with it: Candida albicans. The method, then:
as §1, §2

Experiment [5] concerns DSY-1764 C. albican mutant erg3/11 (AmB-resistant strain). Description: MIC determination in AmB-resistant Candida strain DSY-1764. The experiment is classed as cell-based, Candida albicans. The settings on record: Candida albicans, 36 h. The method, then:
as §1, §2

The subject of experiment [6] is Saccharomyces cerevisiae wild type BY4741. Description: MIC determination in Saccharomyces cerevisiae wild type BY4741. The format is cell-based. The note with it: Saccharomyces cerevisiae wild type BY4741; YEPD liquid medium, 18 hours at 30° C.; read-out: MIC. The method, then:
as §1
MIC values of various polyene macrolides of the invention in Saccharomyces cerevisiae wild type BY4741, a derivative of S288C, (with AmB as a reference) were determined as described hereinabove.
Based on the remarkable performance observed with the Diamine-AmB conjugate similar modifications of the aminosugar moiety were made on other polyene macrolides, such as for example Nystatin (1b) and Pimaricin (1c). The antifungal activity of these nystatin and pimaricin conjugates bearing two aminopropyl side chains was measured using Saccharomyces cerevisiae wild type BY4741.

Experiment [7] deals with DSY-296 C. albican CI. Description: MIC determination in Candida strain DSY-296. The note with it: Candida albicans. The experiment is classed as cell-based, Candida albicans. The method, then: as §1, §2
Experiment [8] deals with DSY-654 C. albican mutant cdr1/2. The experiment is described as follows: MIC determination in Candida strain DSY-654. The experiment is classed as cell-based, Candida albicans. The note with it: Candida albicans. The method, then: as §1, §2

Take `C[C@@H]1[C@H](O)[C@@H](C)/C=C/C=C/C=C/C=C/C=C/C=C/C=C/[C@H](O[C@@H]2O[C@H](C)[C@@H](O)[C@H](N(CCCN)CCCN)[C@@H]2O)CC2O[C@](O)(C[C@@H](O)C[C@@H](O)[C@H](O)CC[C@@H](O)C[C@@H](O)CC(=O)O[C@H]1C)C[C@H](O)[C@H]2C(=O)NCCCN(C)C` [compound 11, 16-(N′-(3-Dimethylaminopropyl)carboxamide)-N,N-di-(3-aminopropyl)-AmB]: the MIC – broadly, the least concentration at which growth counts as inhibited – in experiment [1] is 0.3 µM (≈ 0.337 µg/mL); in experiment [2], 0.3 µM (≈ 0.337 µg/mL); in experiment [3] it was 1 µM (≈ 1.12 µg/mL); in experiment [4], 0.5 µM (≈ 0.561 µg/mL); in experiment [5], 1 µM (≈ 1.12 µg/mL); in experiment [6], 0.4 µM (≈ 0.449 µg/mL). The compound further showed a minimum inhibitory concentration (MIC) in experiment [7] of 0.3 µM (≈ 0.337 µg/mL).
For `C[C@@H]1[C@H](O)[C@@H](C)/C=C/C=C/C=C/C=C/C=C/C=C/C=C/[C@H](O[C@@H]2O[C@H](C)[C@@H](O)[C@H](N(CCCN)CCCN)[C@@H]2O)CC2O[C@](O)(C[C@@H](O)C[C@@H](O)[C@H](O)CC[C@@H](O)C[C@@H](O)CC(=O)O[C@H]1C)C[C@H](O)[C@H]2C(=O)N1CCN(C)CC1` [compound 12, 16-(N′-(1-Methylpiperazinyl)carboxamide)-N,N-di-(3-aminopropyl)-AmB], the minimum inhibitory concentration (MIC) in experiment [1] came to 0.3 µM (≈ 0.336 µg/mL); in experiment [2] it was 0.2 µM (≈ 0.224 µg/mL); in experiment [8] it was 0.4 µM (≈ 0.448 µg/mL); in experiment [3], 0.4 µM (≈ 0.448 µg/mL); in experiment [4] it was 0.3 µM (≈ 0.336 µg/mL); in experiment [5] it was 1 µM (≈ 1.12 µg/mL). Also, the minimal inhibitory concentration (MIC) in experiment [6] was 0.2 µM (≈ 0.224 µg/mL).
